Results taken from US7612107B2, “Treatment and inhibition of disease conditions using flexible heteroarotinoids” (The Board of Regents of the University of Oklahoma, priority 2005, dated 2009).
Where two headings read alike, the source gives them in different places.

Assays:
[1] = tested on: organotypic cultures of human ovarian cancer cell lines and primary cultures; experiment: Ovarian carcinoma organotypic cultures (TUNEL, histology); type: cell-based; settings: 1 μM retinoid in media
Description: FIG. 17. Retinoid effects on ovarian carcinoma organotypic cultures. Organotypic cultures of OVCAR-3 (A, B, E, F, I and J), Caov-3 (C and G), SK-OV-3 (D and H), and O2 (K and L) were grown in the absence (−, top row and K) or presence (+, middle row and I, J and L) of retinoid HetA4 at a concentration of 1 μM in the media. All sections were stained with H&E except for […], which was stained with PAS to detect glycoproteins and glandular differentiation, and J, which was stained with the TUNEL assay to detect apoptosis. All magnifications are 40×.
To test our hypotheses, we evaluated the effects of clinically achievable concentrations of 4-HPR and Flex-Hets on growth, differentiation and apoptosis in ovarian tissue. A series of compounds with a variety of receptor activation profiles were evaluated. In order to evaluate therapeutic effects, we developed an organotypic culture model of ovarian tumors by growing established cell lines and primary cultures inside collagen gels. Monolayer cultures of cells are not accurate representations of in vivo tissue because they lack the types of interactions that cells have with other cells and with the extracellular matrix in vivo. These interactions are known to influence gene expression and thus the constitution and behavior of cells. In our organotypic model, the growth of tumor cells inside the collagen allows a representation of tumors that have invaded stromal tissue. In the presence of fibroblasts, established cell lines and primary cultures of ovarian cancer formed colonies inside the collagen, while normal or benign ovarian epithelial cells remained as single cells inside the collagen. Human ovarian cancer cell lines (OVCAR-3, Caov-3, SK-OV-3, A2780, UCI 101) and primary human cultures (borderline ovarian tumor (O1), serous papillary tumor (O2), benign ovarian cyst (O3)) were cultured inside and on top of a collagen gel seeded with 3T3 fibroblasts for one week. After further incubation in the presence or absence of 1 μM retinoid (media concentration) for 3, 7 or 14 days, cultures were fixed and sectioned for immunohistochemical analysis.
The TUNEL assay was used to evaluate apoptosis in fixed, paraffin embedded, cut sections of the treated and control cultures (FIG. 17). […] These two cellular outcomes appeared to be mutually exclusive.

OVCAR-3 xenograft tumors = experiment: OVCAR-3 xenograft tumor growth model; type: in vivo, mouse; settings: 10 mg/kg/day by gavage, 5 days per week, 4 weeks
Description: Groups of 5 mice bearing OVCAR-3 xenografted tumors were gavaged daily with the indicated drugs in sesame oil (▪ closed square) or with sesame oil alone (∘ open circle). Tumor volumes were measured in 3 dimensions with calipers weekly. Each data point represents the average and standard error of the tumor volumes on the indicated treatment day relative to the tumor volume on day zero. Nu/nu mice were injected subcutaneously with one million OVCAR-3 cells and arbitrarily divided into five groups of six mice each. After three weeks of tumor growth, the animals were gavaged with sesame oil, 10 mg/kg/day 4-HPR, or the indicated Het five times per week for four weeks and the tumors were measured once per week. The tumor sizes were averaged and divided by the average size for each group on the day that treatment was initiated (day 0).
The OVCAR-3 cultures were maintained in RPMI media supplemented with 10% fetal bovine serum. All animal experimentation described in this manuscript was conducted in accord with accepted standards of humane animal care. Twenty-five female NU/NU CD-1 female mice (Charles Rivers Laboratories) were housed in a laminar flow room under sterile conditions at 83-85° F. The mice were quarantined for one week prior to the beginning of the study and were allowed access to autoclaved food (Purina 5001 mouse/rat sterilizable diet, St. Louis, Mo.) and water ad libitum. OVCAR-3 cells in log phase growth were harvested by trypsinization, resuspended in RPMI culture medium, and centrifuged at 3,000 rpm for 10 min. The pellets were resuspended in RPMI culture medium at a concentration of 7×10^6 cells/ml before implantation into mice. Animals were injected with 3.5×10^6 cells into the right scapular region with a 24-gauge needle/1 cc tuberculin syringe. Twenty-four hours after tumor implantation, animals were randomized into 5 groups of 5 animals each.
The Hets SHet50, SHetA2 and SHetA4 were synthesized and their receptor specificity determined as previously described (17,19). The 4-HPR compound was a gift from R.W. Johnson Pharmaceutical Research Institute, Raritan, N.J. All retinoids were dissolved in super refined sesame oil (Croda, Inc., Parsippany, N.J.) and stored at −80° C. Since the retinoids are light sensitive, all manipulations involving retinoids were performed under subdued lighting. […] Tumors were measured with calipers weekly, and tumor volumes were calculated using the formula: volume=length×width×height. Tumor growth was determined by the dividing the volume of the tumor at each weekly measurement by the volume on the first day of treatment. Animal weights and clinical signs of overall health status and cutaneous toxicities were recorded weekly.

Raldh2-/- embryos = settings: for No. of −/− rescued / No. of −/− unrescued: E10.25; for Teratogenesis: mouse, in vivo, po
Description: Briefly, retinoids were dissolved in corn oil and administered orally to timed-pregnant Raldh2_/_mice at 12-h intervals on E7.25, E7.75, and E8.25. Dosages varied from 0.025 to 25 mg/kg. At E10.25, embryos were analyzed morphologically to determine whether Raldh2_/_embryos were rescued or whether wild-type embryos had suffered teratogenesis. Detection of embryonic RA was performed in situ in embryos carrying the RARE-lacZ RA-reporter gene by staining for beta-galactosidase activity for 10 h (45).
A mouse model that lacks retinaldehyde dehydrogenase (Raldh2) due to null mutations was used to test the ability of Flex-Hets to substitute for retinoic acid (RA) and induce birth defects. […] We examined the relative ability of all-trans-RA, 9-cis-RA, receptor-specific synthetic retinoids and retinoic acid receptor independent Flex-Hets to rescue the Raldh2_/_embryonic lethal phenotype.

dorsal skin = experiment: Topical irritancy in Skh hairless mice; type: in vivo
Description: Female Skh hairless mice, 6-8 weeks old, were treated topically on the dorsal skin for 4 days over a 2-log concentration dose range with various compounds. Retinoic acid receptor-Hets were evaluated in A, while retinoic acid receptor-independent Flex-Hets were evaluated in B. Daily flaking and abrasion scores were combined to calculate a single cutaneous toxicity score for each mouse. Each treatment group consisted of 4 mice, and group averages were used to plot cutaneous toxicity against doses of the compounds.
Topical irritancy was evaluated according to published procedures (29). Briefly, female Skh hairless mice, 6-8 weeks old, were treated topically on the dorsal skin for 4 days over a 2-log concentration dose range with various compounds. Daily flaking and abrasion scores were combined to calculate a single cutaneous toxicity score for each mouse. Each treatment group consists of 4 mice, and group averages are used to plot cutaneous toxicity against dose of the retinoid compound.

[2] = tested on: human polycystic kidney disease cells; experiment: 3-D model of polycystic kidney disease, cyst formation; type: cell-based; settings: 4 μM, 3 weeks
Description: FIG. 21. Effects of Flex-Hets on formation of cysts in cultured polycystic kidney disease cells. A primary culture of polycystic kidney cells were grown inside a mixture of collagen I and matrigel and treated with prostaglandin E2 to induce cyst formation. Parallel cultures were treated with 10 micromolar SHetA3 and SHetA4.
The 3-D model of the PKD was developed as described here. Single-cell suspensions of the PCKD cell lines was re-suspended in a 4° C. solution mixture containing rat tail collagen I (Collaborative Biomedical Products, Bedford, Mass.), matrigel (Becton Dickinson) and MEM. The suspension was poured into Falcon cell culture inserts with transparent membranes containing 0.4 μm pores (Becton Dickinson, Franklin Lakes, N.J.) and placed at 37° C. Treatment of cultures was initiated after 1 day of growth and replenished with medium once in every two days. Drugs (Flex-Hets at 4 μM Conc.) and hormones (PGE2 at 25 ng/ml) were administered into the medium surrounding the insert. Untreated control cultures were grown in the same conditions as that of the treated cultures. Drug treatment was carried out for 3 weeks before their effects on growth and inhibition were evaluated.

[3] = more potent than RA; cited from earlier work
[4] = topical, dorsal skin, 4 days, 2-log dose range

SMILES: CC1=C(/C=C/C(C)=C/C=C/C(C)=C/C(=O)Nc2ccc(O)cc2)C(C)(C)CCC1 [4-HPR, reference compound]
- Induction of apoptosis (TUNEL) in organotypic cultures [1]: Apoptosis was induced
- Growth of xenograft tumors versus sesame oil control (OVCAR-3 xenograft tumors): significantly inhibited the growth

SMILES: CC1=C(/C=C/C(C)=C\C=C\C(C)=C\C(=O)O)C(C)(C)CCC1 [9-cis-RA]
- No. of −/− rescued (Raldh2-/- embryos; Dose 2.5 mg/kg oral): 2
- No. of −/− unrescued (Raldh2-/- embryos; Dose 2.5 mg/kg oral): 8
- No. of −/− rescued (Raldh2-/- embryos; Dose 10 mg/kg oral): 6
- No. of −/− unrescued (Raldh2-/- embryos; Dose 10 mg/kg oral): 1
- Teratogenesis (Raldh2-/- embryos; 2.5 mg/kg): 0
- Teratogenesis (Raldh2-/- embryos; 10 mg/kg): 0
- Induction of apoptosis (TUNEL) in organotypic cultures [1]: Apoptosis was induced

SMILES: CC1=C(/C=C/C(C)=C/C=C/C(C)=C/C(=O)O)C(C)(C)CCC1 [All-trans-RA]
- No. of −/− rescued (Raldh2-/- embryos; Dose 1.0 mg/kg oral): 0
- No. of −/− unrescued (Raldh2-/- embryos; Dose 1.0 mg/kg oral): 7
- No. of −/− rescued (Raldh2-/- embryos; Dose 2.5 mg/kg oral): 13
- No. of −/− unrescued (Raldh2-/- embryos; Dose 2.5 mg/kg oral): 1
- Teratogenesis (Raldh2-/- embryos; 1 mg/kg): 0
- Teratogenesis (Raldh2-/- embryos; 2.5 mg/kg): 0

SMILES: CCOC(=O)c1ccc(OC(=O)c2ccc3c(c2)C(C)(C)CCN3C(C)C)cc1 [NHet17]
- Topical irritancy (cutaneous toxicity score) (dorsal skin; [4]): induced topical irritancy scores in a dose-responsive manner

SMILES: CC1(C)CCOc2ccc(C(=O)Oc3ccc(C=NNC(N)=S)cc3)cc21 [OHet72]
- Rescue of Raldh2−/− embryos (in words) (Raldh2-/- embryos; 2.5 mg/kg): no rescue
- Rescue of Raldh2−/− embryos (in words) (Raldh2-/- embryos; 10 or 25 mg/kg): no rescue
- No. of −/− rescued (Raldh2-/- embryos; Dose 2.5 mg/kg oral): 0
- No. of −/− unrescued (Raldh2-/- embryos; Dose 2.5 mg/kg oral): 4
- No. of −/− rescued (Raldh2-/- embryos; Dose 10 mg/kg oral): 0
- No. of −/− unrescued (Raldh2-/- embryos; Dose 10 mg/kg oral): 3
- No. of −/− rescued (Raldh2-/- embryos; Dose 25 mg/kg oral): 0
- No. of −/− unrescued (Raldh2-/- embryos; Dose 25 mg/kg oral): 5
- Teratogenesis (Raldh2-/- embryos; 2.5 mg/kg): 0
- Teratogenesis (Raldh2-/- embryos; 10 mg/kg): 0
- Teratogenesis (Raldh2-/- embryos; 25 mg/kg): 0
- Topical irritancy (cutaneous toxicity score) (dorsal skin; mouse, in vivo): did not induce topical irritancy

SMILES: COC(=O)c1ccc(C(=O)Nc2ccc3c(c2)C(C)(C)CC(C)(C)S3)cc1 [SHet50, reference compound]
- Induction of apoptosis (TUNEL) in organotypic cultures [1]: Apoptosis was induced
- Growth of xenograft tumors versus sesame oil control (OVCAR-3 xenograft tumors): significantly inhibited the growth

SMILES: CC(C=CC=C(C)c1ccc2c(c1)C(C)(C)CS2)=CC(=O)O [SHet65]
- Topical irritancy (cutaneous toxicity score) (dorsal skin; [4]): induced topical irritancy scores in a dose-responsive manner

SMILES: CC(Cc1ccc(C(=O)O)cc1)c1ccc2c(c1)C(C)(C)CS2 (stereo not drawn) [SHet100]
- Rescue of Raldh2−/− embryos (in words) (Raldh2-/- embryos; 0.5 mg/kg): typical rescue phenotype
- No. of −/− rescued (Raldh2-/- embryos; Dose 0.025 mg/kg oral): 0
- No. of −/− unrescued (Raldh2-/- embryos; Dose 0.025 mg/kg oral): 2
- No. of −/− rescued (Raldh2-/- embryos; Dose 0.25 mg/kg oral): 2
- No. of −/− unrescued (Raldh2-/- embryos; Dose 0.25 mg/kg oral): 0
- No. of −/− rescued (Raldh2-/- embryos; Dose 0.5 mg/kg oral): 6
- No. of −/− unrescued (Raldh2-/- embryos; Dose 0.5 mg/kg oral): 1
- Teratogenesis (Raldh2-/- embryos; 0.025 mg/kg): 0
- Teratogenesis (Raldh2-/- embryos; 0.25 mg/kg): 0
- Teratogenesis (Raldh2-/- embryos; 0.5 mg/kg): 0
- Teratogenesis (Raldh2-/- embryos; 2.5 mg/kg): 11

SMILES: CCOC(=O)c1ccc(NC(=O)Nc2ccc3c(c2)C(C)(C)CC(C)(C)S3)cc1 [SHetA4]
- Induction of apoptosis (TUNEL) in organotypic cultures [1]: Apoptosis was induced
- Differentiated phenotype (tubular structures) [2]: induced the formation of several branched tubular structures
- Cyst formation ([2]; PGE2 25 ng/ml): completely eliminated cyst formation
- Growth of xenograft tumors versus sesame oil control (OVCAR-3 xenograft tumors): significantly inhibited the growth
- Topical irritancy (cutaneous toxicity score) (dorsal skin; mouse, in vivo): did not induce topical irritancy

SMILES: C/C(=C\c1ccc(C(=O)O)cc1)c1ccc2c(c1)C(C)(C)CCC2(C)C [TTNPB]
- Potency relative to RA [3]: 10 fold
